# According to PubChem BioAssay AID1259407 (Chemical Carcinogenesis Research Information System (CCRIS), 2018):
# Activity calls are given as the source filed them. How the calls were made is not given here.
# Tested on: CCRIS mutagenicity, Ames/micronucleus/aberration tests
# Assay: CCRIS mutagenicity studies
# [1] = Test System: AMES SALMONELLA TYPHIMURIUM, Strain/Indicator: TA100, Metabolic Activation: NONE, Method: STANDARD PLATE
# [2] = Test System: AMES SALMONELLA TYPHIMURIUM, Strain/Indicator: TA100, Metabolic Activation: RAT, LIVER, S-9, AROCLOR 1254, Method: STANDARD PLATE
# [3] = Test System: AMES SALMONELLA TYPHIMURIUM, Strain/Indicator: TA98, Metabolic Activation: NONE, Method: PREINCUBATION
# [4] = Test System: AMES SALMONELLA TYPHIMURIUM, Strain/Indicator: TA100, Metabolic Activation: NONE, Method: PREINCUBATION
# [5] = Test System: AMES SALMONELLA TYPHIMURIUM, Strain/Indicator: TA1535, Metabolic Activation: NONE, Method: PREINCUBATION
# [6] = Test System: AMES SALMONELLA TYPHIMURIUM, Strain/Indicator: TA1537, Metabolic Activation: NONE, Method: PREINCUBATION
# [7] = Test System: AMES SALMONELLA TYPHIMURIUM, Strain/Indicator: TA97, Metabolic Activation: NONE, Method: STANDARD PLATE
# [8] = Test System: AMES SALMONELLA TYPHIMURIUM, Strain/Indicator: TA97, Metabolic Activation: RAT, LIVER, S-9, AROCLOR 1254, Method: STANDARD PLATE
# [9] = Test System: AMES SALMONELLA TYPHIMURIUM, Strain/Indicator: TA98, Metabolic Activation: NONE, Method: STANDARD PLATE
# [10] = Test System: AMES SALMONELLA TYPHIMURIUM, Strain/Indicator: TA98, Metabolic Activation: RAT, LIVER, S-9, AROCLOR 1254, Method: STANDARD PLATE
compound,measurement,setting,value
CCOCC1CO1 (stereo unspecified),mutagenic call,[1],active; positive
same,mutagenic call,[2],active; positive
same,mutagenic call,"Test System: AMES SALMONELLA TYPHIMURIUM, Strain/Indicator: TA1535, Metabolic Activation: NONE, Method: STANDARD PLATE",active; positive
same,mutagenic call,"Test System: AMES SALMONELLA TYPHIMURIUM, Strain/Indicator: TA1535, Metabolic Activation: RAT, LIVER, S-9, AROCLOR 1254, Method: STANDARD PLATE",active; positive
CC(N)Cc1ccccc1 (stereo unspecified),mutagenic call,"Test System: AMES SALMONELLA TYPHIMURIUM, Strain/Indicator: TA98, Metabolic Activation: HAMSTER, LIVER, S-9, AROCLOR 1254 (4%, 10% OR 20%), Method: PREINCUBATION",inactive; negative
same,mutagenic call,"Test System: AMES SALMONELLA TYPHIMURIUM, Strain/Indicator: TA98, Metabolic Activation: HAMSTER, LIVER, S-9, AROCLOR 1254 (4, 10 OR 20%), Method: PREINCUBATION",inactive; negative
same,mutagenic call,[3],inactive; negative
same,mutagenic call,"Test System: AMES SALMONELLA TYPHIMURIUM, Strain/Indicator: TA98, Metabolic Activation: RAT, LIVER, S-9, AROCLOR 1254 (10%), Method: PREINCUBATION",inactive; negative
same,mutagenic call,"Test System: AMES SALMONELLA TYPHIMURIUM, Strain/Indicator: TA100, Metabolic Activation: HAMSTER, LIVER, S-9, AROCLOR 1254 (10%), Method: PREINCUBATION",inactive; negative
same,mutagenic call,[4],inactive; negative
same,mutagenic call,"Test System: AMES SALMONELLA TYPHIMURIUM, Strain/Indicator: TA100, Metabolic Activation: RAT, LIVER, S-9, AROCLOR 1254 (10%), Method: PREINCUBATION",inactive; negative
same,mutagenic call,"Test System: AMES SALMONELLA TYPHIMURIUM, Strain/Indicator: TA1535, Metabolic Activation: HAMSTER, LIVER, S-9, AROCLOR 1254 (10%), Method: PREINCUBATION",inactive; negative
same,mutagenic call,[5],inactive; negative
same,mutagenic call,"Test System: AMES SALMONELLA TYPHIMURIUM, Strain/Indicator: TA1535, Metabolic Activation: RAT, LIVER, S-9, AROCLOR 1254 (10%), Method: PREINCUBATION",inactive; negative
same,mutagenic call,"Test System: AMES SALMONELLA TYPHIMURIUM, Strain/Indicator: TA1537, Metabolic Activation: HAMSTER, LIVER, S-9, AROCLOR 1254 (10%), Method: PREINCUBATION",inactive; negative
same,mutagenic call,[6],inactive; negative
same,mutagenic call,"Test System: AMES SALMONELLA TYPHIMURIUM, Strain/Indicator: TA1537, Metabolic Activation: RAT, LIVER, S-9, AROCLOR 1254 (10%), Method: PREINCUBATION",inactive; negative
ClC(Cl)C(Cl)Cl,mutagenic call,"End Point: IN VITRO CHROMOSOMAL ABERRATIONS, Test System: CHINESE HAMSTER OVARY CELLS, Metabolic Activation: NONE",inactive; negative; precipitation occurred at 653 ug/ml
same,mutagenic call,"End Point: IN VITRO CHROMOSOMAL ABERRATIONS, Test System: CHINESE HAMSTER OVARY CELLS, Metabolic Activation: RAT, LIVER, S-9, AROCLOR 1254",inactive; negative
same,mutagenic call,[7],active; positive
same,mutagenic call,[8],active; positive
same,mutagenic call,[9],active; positive
same,mutagenic call,[10],active; positive
same,mutagenic call,[1],active; positive
same,mutagenic call,[2],active; positive
same,mutagenic call,"Test System: AMES SALMONELLA TYPHIMURIUM, Strain/Indicator: TA104, Metabolic Activation: NONE, Method: STANDARD PLATE",inactive; negative
same,mutagenic call,"Test System: AMES SALMONELLA TYPHIMURIUM, Strain/Indicator: TA104, Metabolic Activation: RAT, LIVER, S-9, AROCLOR 1254, Method: STANDARD PLATE",active; positive
same,mutagenic call,"Test System: AMES SALMONELLA TYPHIMURIUM, Strain/Indicator: TA1530, Metabolic Activation: NONE, Method: SPOT",active; positive
same,mutagenic call,"Test System: AMES SALMONELLA TYPHIMURIUM, Strain/Indicator: TA1535, Metabolic Activation: NONE, Method: SPOT",active; positive
CCC(CCC(C)=O)COC(=O)c1ccccc1C(=O)O (stereo unspecified),mutagenic call,[7],inactive; negative
same,mutagenic call,[8],inactive; negative
same,mutagenic call,"Test System: AMES SALMONELLA TYPHIMURIUM, Strain/Indicator: TA97, Metabolic Activation: RAT, LIVER, S-9, DI(2-ETHYLHEXYL)PHTHALATE, Method: STANDARD PLATE",inactive; negative
same,mutagenic call,[9],inactive; negative
same,mutagenic call,[10],inactive; negative
same,mutagenic call,"Test System: AMES SALMONELLA TYPHIMURIUM, Strain/Indicator: TA98, Metabolic Activation: RAT, LIVER, S-9, DI(2-ETHYLHEXYL)PHTHALATE, Method: STANDARD PLATE",inactive; negative
same,mutagenic call,[1],inactive; negative
same,mutagenic call,[2],inactive; negative
same,mutagenic call,"Test System: AMES SALMONELLA TYPHIMURIUM, Strain/Indicator: TA100, Metabolic Activation: RAT, LIVER, S-9, DI(2-ETHYLHEXYL)PHTHALATE, Method: STANDARD PLATE",inactive; negative
same,mutagenic call,"Test System: AMES SALMONELLA TYPHIMURIUM, Strain/Indicator: TA102, Metabolic Activation: NONE, Method: STANDARD PLATE",inactive; negative
same,mutagenic call,"Test System: AMES SALMONELLA TYPHIMURIUM, Strain/Indicator: TA102, Metabolic Activation: RAT, LIVER, S-9, AROCLOR 1254, Method: STANDARD PLATE",inactive; negative
same,mutagenic call,"Test System: AMES SALMONELLA TYPHIMURIUM, Strain/Indicator: TA102, Metabolic Activation: RAT, LIVER, S-9, DI(2-ETHYLHEXYL)PHTHALATE, Method: STANDARD PLATE",inactive; negative
Cc1cccc(N)c1,mutagenic call,"Test System: AMES SALMONELLA TYPHIMURIUM, Strain/Indicator: TA97, Metabolic Activation: HAMSTER, LIVER, S-9, AROCLOR 1254 (10 OR 30%), Method: PREINCUBATION",inactive; negative
same,mutagenic call,"Test System: AMES SALMONELLA TYPHIMURIUM, Strain/Indicator: TA97, Metabolic Activation: NONE, Method: PREINCUBATION",inactive; negative
same,mutagenic call,"Test System: AMES SALMONELLA TYPHIMURIUM, Strain/Indicator: TA97, Metabolic Activation: RAT, LIVER, S-9, AROCLOR 1254 (10 OR 30%), Method: PREINCUBATION",inactive; negative
same,mutagenic call,"Test System: AMES SALMONELLA TYPHIMURIUM, Strain/Indicator: TA98, Metabolic Activation: HAMSTER, LIVER, S-9, AROCLOR 1254 (10 OR 30%), Method: PREINCUBATION",inactive; negative
same,mutagenic call,[3],inactive; negative
same,mutagenic call,"Test System: AMES SALMONELLA TYPHIMURIUM, Strain/Indicator: TA98, Metabolic Activation: RAT, LIVER, S-9, AROCLOR 1254 (10 OR 30%), Method: PREINCUBATION",inactive; negative
same,mutagenic call,"Test System: AMES SALMONELLA TYPHIMURIUM, Strain/Indicator: TA100, Metabolic Activation: HAMSTER, LIVER, S-9, AROCLOR 1254 (10 OR 30%), Method: PREINCUBATION",inactive; negative
same,mutagenic call,[4],inactive; negative
same,mutagenic call,"Test System: AMES SALMONELLA TYPHIMURIUM, Strain/Indicator: TA100, Metabolic Activation: RAT, LIVER, S-9, AROCLOR 1254 (10 OR 30%), Method: PREINCUBATION",inactive; negative
same,mutagenic call,"Test System: AMES SALMONELLA TYPHIMURIUM, Strain/Indicator: TA1535, Metabolic Activation: HAMSTER, LIVER, S-9, AROCLOR 1254 (10 OR 30%), Method: PREINCUBATION",inactive; negative
same,mutagenic call,[5],inactive; negative
same,mutagenic call,"Test System: AMES SALMONELLA TYPHIMURIUM, Strain/Indicator: TA1535, Metabolic Activation: RAT, LIVER, S-9, AROCLOR 1254 (10 OR 30%), Method: PREINCUBATION",inactive; negative
same,mutagenic call,"Test System: AMES SALMONELLA TYPHIMURIUM, Strain/Indicator: TA1537, Metabolic Activation: HAMSTER, LIVER, S-9, AROCLOR 1254 (10 OR 30%), Method: PREINCUBATION",inactive; negative
same,mutagenic call,[6],inactive; negative
same,mutagenic call,"Test System: AMES SALMONELLA TYPHIMURIUM, Strain/Indicator: TA1537, Metabolic Activation: RAT, LIVER, S-9, AROCLOR 1254 (10 OR 30%), Method: PREINCUBATION",inactive; negative
